According to a melting point compilation (Tetko et al.; mined from patent text by program, amines drawn as free bases though some values may be those of a salt):

| Compound | melting point |
| --- | --- |
| Cn1cc(C(=O)Nc2ccccc2-c2cc(Cl)cc(Cl)c2)c(C(F)(F)F)n1 | 101 to 105 °C |
| Cc1cc(OCc2ccccc2)cc(C)c1CC(=O)O | 149 to 150 °C |
| CC(CCC(=O)OCc1ccccc1)C1CC=C2C3=C(CCC21C)C1(C)CCC(O)C(C)(C)C1CC3 (configuration not stated) | 118 to 119 °C |
| Cc1ncc(C#N)c(Nc2ccc3[nH]ccc3c2C)c1-c1ccc(OCCCl)cc1 | 200 to 201 °C |
| CCn1nnn(CCN2CCC(COC)(N(OCc3ccccc3)C(C)=O)CC2)c1=O | 140 to 141 °C |
| COc1ccc(-c2c(Cl)c(CN3C(=O)CCC3=O)nc3sc4c(c23)CCN(C(C)=O)C4)cc1 | 266 to 267 °C |
| CC(=O)Oc1c(C)cc(C2C(=O)Oc3c2cc(C(C)(C)C)cc3C(C)(C)C)cc1C (configuration not stated) | 165 to 166 °C |
| CC(C)C[C@H](NC(=O)[C@@H]1CCC(=O)N1C(=O)OCc1ccccc1)C(=O)OC(C)(C)C | 130 to 131 °C |
| CCOC(=O)c1c(O)c(Br)c(Br)n1Cc1ccccc1 | 107 to 108 °C |
| O[C@@H](CNC1CN(C(c2ccccc2)c2ccccc2)C1)COc1ccc(OCc2ccccc2)cc1 | 109 to 110 °C |
| O=C1c2ccccc2C(O)N1CCBr (racemic) | 123 to 124 °C |
| O=C(Cn1c(=O)c(=O)[nH]c2cc([N+](=O)[O-])c(-n3cccc3)cc21)Nc1ccccc1 | > 300 °C |
| CNCCc1c[nH]c2ccc(Cn3cncn3)cc12 | 139 to 141 °C |
| COc1cc(C(=O)CBr)cc(C#N)c1OC | 138 to 141 °C |
| CCCCCCC(C(C)O)n1c(C)nc(C(N)=O)c1N (configuration not stated) | 142 to 144 °C |
| CCOC(=O)c1cc(-n2c(=O)[nH]c3c(c2=O)CCC3)ccc1Cl | 178 to 180 °C |
| CCC(=O)Oc1ccc(-c2nc(-c3ccc(N(C)C)cc3)c(C)[nH]2)cc1OC | 244 to 246 °C |
| CC1CN(c2c(F)cc3c(=O)c(C(=O)O)cn(C4CC4)c3c2OC(F)F)CCN1 (configuration not stated) | 223 to 225 °C |
| Cc1ccccc1CN1CCC(c2cc(-c3ccc(Cl)cc3)[nH]n2)CC1 | 142 to 143 °C |
| CCCCc1sc2ccc([N+](=O)[O-])cc2c1C(=O)c1ccc(O)cc1 | 147 °C |
| COc1cc(C(=O)O)ccc1CNC(=O)C1Cc2ccccc2N1S(=O)(=O)c1ccc(-c2cccc(C(F)(F)F)c2)cc1 (configuration not stated) | 108 to 120 °C |
| O=C(N1CCOCC1)C1(c2onc(-c3ccc(O)cc3)c2-c2ccccc2)CC1 | 195 to 196 °C |
| CC(C)OC(=O)c1cc(-c2nn(C)c(C(F)(F)F)c2CF)c(F)cc1Cl | 74 °C |
| O=C(O)c1ccc(C(=O)N2CCCc3ccccc32)cc1 | 181 to 183 °C |

| Compound | melting point |
| --- | --- |
| OCC(CO)CCOc1ccccc1 | 71 to 73 °C |
| Cc1ncn(C)c1[N+](=O)[O-] | 45 °C |
| CCCCCCCCCCOc1ccccc1-c1nc(N)c(N=O)c(=O)[nH]1 | 144 to 146 °C |
| CCn1ncc(OCc2ccc(C3CCCCC3)cc2)c(Cl)c1=O | 168 to 170 °C |
| COCC1CN(c2ccc(C3CCCCC3)cc2)C(=O)O1 (racemic) | 86 to 88 °C |
| CNC(=O)N1CC(C)(C)NC(C)(C)CC1=O | 147 to 149 °C |
| COc1ccc(S(=O)(=O)N2CCc3cccc(-c4ccncc4)c32)cc1 | 196 to 197 °C |
| O=C1NC(=O)[C@@]2(C[C@@H](C(=O)NO)Oc3ccc(F)cc32)N1 | 178 °C |
| CC(=O)NC1CCC(NC(=O)Nc2ccc(C(F)(F)F)cc2)CC1 (configuration not stated) | > 400 °C |
| CN(Cc1ccccc1)C(=O)/C=C/c1cc(Cl)cnc1N | 106 to 109 °C |
| C=CC[C@H]1CC(C(=O)O)=C[C@@H](OC(CC)CC)[C@@H]1NC(C)=O | 229 to 230 °C |
| Nc1sccc1C(=O)c1ccc(F)cc1 | 178 °C |
| CCCCC(CC(=O)Nc1cc(C(N)=O)ccc1C(C)(C)C)c1ccc(OC)cc1OC (configuration not stated) | 186 to 188 °C |
| COc1ccc(C(=O)Nc2cccc(-c3cccc4c3/C(=C/c3ccc[nH]3)C(=O)N4)c2)cc1 | 209 to 211 °C |
| CCOC(=O)CCNC(=O)c1cn2nc(Cl)ccc2n1 | 132 to 134 °C |
| CC1COCc2nc3c(N)nc4ccc(OCCN5CCOCC5)cc4c3n21 (configuration not stated) | 186 to 188 °C |
| Cn1c(=O)n(C2CCNCC2)c2ccc(Cl)cc21 | 201 °C |
| CS(=O)(=O)c1ccc(C2=C(c3ccc(Cl)cc3)CCC2)cc1 | 128 °C |
| O=C1NCCc2cc(O)ccc21 | 204 to 206 °C |
| COc1ccc2c(Cc3c(Cl)cncc3Cl)nnc(N3CCN(C)CC3)c2c1 | 160 to 162 °C |
| Cc1sc(N2CCOCC2)nc1CCOc1ccc(C[C@H](Nc2ccccc2C(=O)c2ccccc2)C(=O)O)cc1 | 148 to 151 °C |
| Cc1ccc(S(=O)(=O)OCCN(CCOS(=O)(=O)c2ccc(C)cc2)S(=O)(=O)c2ccc(C)cc2)cc1 | 85 to 87 °C |
| COc1ccc(C2=NN(c3ccc(OCC(N)=O)cc3)C(=O)C(C)(C)C2)cc1OC | 184 to 187 °C |
| O=C1C=C(NC(=O)C(=O)c2cn(Cc3ccc(Cl)cc3)c3ccccc23)CO1 | 253 to 255 °C |

Further lines, results first:

| melting point | Compound |
| --- | --- |
| 134 °C | CCSCC1=C(O)CC(C)(C)CC1=O |
| 196 to 197 °C | N#CCCNC(=O)c1cccc(-c2ccc3c(c2)N(c2cc(Cl)cc(Cl)c2)CC3)c1 |
| 107 to 111 °C | O=C(O)C1(C(=O)O)CCOCCOCCOCCOCC1 |
| 137 °C | Cc1cn2cccc(OCc3ccc(F)cc3)c2n1 |
| 170 to 173 °C | Cc1ncc2cccc(CCCCCC(=O)O)n12 |
| 182 to 183 °C | CCOCCCOc1ccc(-c2ccc3c(c2)C=C(C(=O)Nc2ccc(CN(C)C4CCOCC4)cc2)CCS3(=O)=O)cc1Cl |
| 48 °C | CCCCCCCCCCCCSCCOc1ccc(CCC(=O)OC)cc1 |
| 124 to 130 °C | Cn1c(=O)c(Cl)nc2ccccc21 |
| 92 to 95 °C | O=c1oc(-c2c(F)cccc2Cl)nn1-c1ccccc1Cl |
| 123 to 124 °C | ClC(=NNc1c(Cl)cc(Cl)cc1Cl)c1ccc(Cl)cc1 |
| 153 to 155 °C | COC(=O)NC1(c2ccc(C(C)C)cc2OC)C(=O)c2ccccc2C1=O |
| 67 to 68 °C | O=C(NCCCCCCO)OCc1ccccc1 |
| 217 to 222 °C | CC(C)(C)Nc1nc(NC(C)(C)C)nc(N2CC3CCC(CC3)C2)n1 |
| 145 to 146 °C | COc1ccc2c(c1)cc(-c1nc(C)no1)n2-c1ccc(CNC(=O)C2(N)CC2)cc1 |
| 249 to 250 °C | COc1ccc(C(=O)NCc2ccc(CNC(=O)c3ccc(OC)cc3)cc2)cc1 |
| 120 to 121 °C | O=C(COc1cc(C(=O)O)c(O)c2ccccc12)c1ccccc1 |
| 65.9 to 66.7 °C | CCCCCCCCC(=O)NCCc1ccc(O)cc1 |
| 128 to 136 °C | CC1=NC(NC(=O)Nc2cccc(C)c2)C(=O)N(CC(=O)c2ccccc2C)c2c(C)cccc21 (configuration not stated) |
| 141 to 148 °C | Cc1nnnn1-c1ccccc1S(N)(=O)=O |
| 196 to 197 °C | CCOP(=O)(CNC(=O)OC(c1ccccc1)c1cc(C(C)(C)C)c(O)c(C(C)(C)C)c1)OCC (configuration not stated) |
| > 210 °C | Nc1nccc(-c2c[nH]c3nccc(C#Cc4ccccc4)c23)n1 |
| 116 to 119 °C | CCCCc1ccc(N=C2NCCCN2)cc1 |
| 64 °C | COc1ccc2c(c1OCc1ccccc1)CCCC2=O |
| 113 to 117 °C | CC(C)(C)OC(=O)N1[C@@H](C(=O)O)CC[C@H]1c1ccccc1 (racemic) |
